Usually IC50 stands for the concentration that inhibits the measured activity by half.

Each structure is given as a SMILES string. Counter-ions that a name gives are not always drawn. Like-named read-outs stand apart in the source and are kept apart here.

Our source for the IC50 values is patent US8664217B2, “Benzodiazepine compound and pharmaceutical composition” (Otsuka Pharmaceutical Co., Ltd., priority 2008, dated 2014).

This test deals with T1, human GIRK1/4 channels (Homo sapiens, UniProt P48544+P48549).
T1 construct: Full-length human GIRK1 cDNA was cloned from HuH cell- and HeLa cell-derived cDNA libraries; Full-length GIRK4 cDNA was amplified from a human heart cDNA library; expressed in transfected cells; host or cells: FLP-IN-CHO cells (Invitrogen)
T1 sequence (P48549 1-501): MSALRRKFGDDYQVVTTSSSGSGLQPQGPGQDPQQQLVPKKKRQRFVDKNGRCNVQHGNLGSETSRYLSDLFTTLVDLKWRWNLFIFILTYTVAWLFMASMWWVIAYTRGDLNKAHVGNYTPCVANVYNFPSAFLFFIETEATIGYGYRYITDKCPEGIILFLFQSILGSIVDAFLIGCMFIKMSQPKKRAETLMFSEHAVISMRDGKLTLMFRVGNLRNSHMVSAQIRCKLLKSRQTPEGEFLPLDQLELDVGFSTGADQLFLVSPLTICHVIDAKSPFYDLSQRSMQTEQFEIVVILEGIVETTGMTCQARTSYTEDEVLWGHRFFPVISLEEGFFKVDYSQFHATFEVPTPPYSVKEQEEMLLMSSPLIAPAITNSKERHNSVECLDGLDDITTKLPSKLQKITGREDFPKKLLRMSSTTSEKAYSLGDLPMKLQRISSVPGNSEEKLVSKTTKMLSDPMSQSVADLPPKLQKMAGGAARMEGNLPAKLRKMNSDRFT
T1 sequence (P48544 1-419): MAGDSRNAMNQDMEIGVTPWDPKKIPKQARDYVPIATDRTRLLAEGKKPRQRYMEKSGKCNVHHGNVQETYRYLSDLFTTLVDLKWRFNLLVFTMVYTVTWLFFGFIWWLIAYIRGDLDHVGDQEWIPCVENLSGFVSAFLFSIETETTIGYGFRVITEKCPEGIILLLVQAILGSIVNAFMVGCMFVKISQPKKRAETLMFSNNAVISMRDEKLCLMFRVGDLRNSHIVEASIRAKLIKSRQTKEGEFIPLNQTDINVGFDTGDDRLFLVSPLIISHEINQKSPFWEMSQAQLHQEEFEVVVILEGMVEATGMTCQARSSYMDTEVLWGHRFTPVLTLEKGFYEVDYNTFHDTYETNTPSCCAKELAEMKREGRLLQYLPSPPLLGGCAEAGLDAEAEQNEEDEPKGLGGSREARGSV
Nature of the test: Measurement of human GIRK1/4 channel current by whole-cell patch clamp method (human GIRK1/4-expressing CHO cell line). It counts as cell-based. The protocol:
(2) Production of CHO Cell Line Expressing Human GIRK1/4
CHO cell lines stably expressing human GIRK1/4 channels were prepared in the following manner.
Full-length human GIRK1 cDNA was cloned from HuH cell- and HeLa cell-derived cDNA libraries. Full-length GIRK4 cDNA was amplified from a human heart cDNA library (produced by Clontech Laboratories, Inc.) by PCR using synthetic primers shown in Table 1, and cloned into the Eco-RI restriction enzyme site of pCR-Blunt (produced by Invitrogen Corporation) or into the HincII site of pUC118 (produced by Takara Bio, Inc.).
The obtained human GIRK1 and GIRK4 cDNA sequences correspond to known sequences (NCBI database: GIRK1 (NM_002239) and GIRK4 (NM_000890) respectively). The obtained GIRK1 and GIRK4 cDNA sequences were cloned into the Eco-RI restriction enzyme site of pCR-Blunt (available from Invitrogen Corporation) or into the HincII site of pUC118 (available from Takara Bio, Inc.). A GIRK4 expression vector was constructed by insertion into the BamHI-XhoI site of pcDNA5/FRT. A GIRK1 expression vector was constructed by insertion into the KpnI-XhoI site of pcDNA3.1(+) or pCAG_neo. FLP-IN-CHO cells (produced by Invitrogen Corporation) were transfected with human GIRK1 and GIRK4 expression vectors by using Lipofectamine 2000 (produced by Invitrogen Corporation) according to the protocol enclosed with the reagent or using an electronic induction method (“Nucleofector Kit-T”, produced by Amaxa). First, the cells transfected with the GIRK4 expression vector were cultured in a 10% serum-containing F12 medium (produced by Sigma) supplemented with 600 μg/ml of hygromycin in an incubator with 5% carbon dioxide at 37° C. Then the cells expressing GIRK4 were transfected with the GIRK1 expression vector and were cultured in 10% serum-containing F12 medium supplemented with 350 μg/ml of G418 and 600 μg/ml of hygromycin in an incubator with 5% carbon dioxide at 37° C. to select GIRK1/4 expressing cell lines. Cell populations whose growth was observed after about 2 weeks were isolated using cloning rings, and the obtained single colonies were proliferated. RNA was extracted from single colonies, and single-stranded cDNA was synthesized by a cDNA synthesis kit (produced by Invitrogen Corporation), and the amount of expression was quantified at the mRNA level by real-time PCR (Applied Biosystems, Ltd.). Finally, the expressed current was analyzed by patch clamp method described below. The cell lines expressing a current of 500 pA or more per cell were selected as channel-expressing cell lines for activity measurement by patch clamping method.
(4) Measurement of Ion Channel Current by Patch Clamp Method (Human GIRK1/4-Expressing CHO-K1 Cell Line)
An experiment was carried out using a patch clamp setup at room temperature (20 to 26° C.). A perfusion chamber having a diameter of 20 mm (flow rate: about 5 ml/min) was mounted on the stage of a phase-contrast inverted microscope (produced by Nikon Corporation) placed on a vibration isolation table. A poly-L-lysine (produced by Sigma)-coated coverslip (diameter: 15 mm, produced by Matsunami Glass Ind., Ltd.) on which human GIRK1/4-expressing cells were cultured was placed in the perfusion chamber.
Hyperpolarizing stimulation pulses were applied and ionic current was recorded using a patch clamp amplifier (EPC-7 or EPC-7 PLUS, manufactured by HEKA) and a personal computer (manufactured by IBM Corp.) in which software for data acquisition and analysis of ion channel current (PULSE 8.77, manufactured by HEKA) was installed. The current was measured in the whole-cell configuration of the patch-clamp technique. The tip (resistance: 2 to 4 MΩ) of a borosilicate glass pipette (produced by Sutter Instrument Co.) was gently placed on the cell membrane by using a three-dimensional mechanical micromanipulator (produced by Shoshin EM Corporation). […] Subsequently, stronger suction was applied to break the cell membrane. […]
A general note: The patch-clamp technique gives a direct electrical read-out from membranes.

The mark [1] stands for this setting: whole-cell patch clamp, human GIRK1/4-expressing CHO cells, step end current at −120 mV, test compound 0.1, 1, 10 μM, read-out: GIRK¼ IC50.

Take `CCN1C(=O)C(C)(C)C(=O)N(C)c2cc(OCCCN(CCc3cccnc3)S(=O)(=O)c3ccccc3)ccc21` [Example 628, N-[3-(1-ethyl-3,3,5-trimethyl-2,4-dioxo-2,3,4,5-tetrahydro-1H-benzo[b][1,4]diazepin-7-yloxy)propyl]-N-(2-pyridin-3-ylethyl)benzenesulfonamide hydrochloride]: the IC50 under setting [1] came out at 2500 nM. In the case of `CCN1C(=O)C(C)(C)C(=O)N(C)c2cc(OCCCN(CCn3ccc4occc4c3=O)Cc3cccnc3)ccc21` [Example 551, 1-ethyl-3,3,5-trimethyl-7-(3-{[2-(4-oxo-4H-furo[3,2-c]pyridin-5-yl)ethyl]pyridin-3-ylmethylamino}-propoxy)-1,5-dihydrobenzo[b][1,4]diazepine-2,4-dione], the IC50 under setting [1] worked out at 5200 nM.

Take `CCN1C(=O)C(C)(C)C(=O)N(C)c2cc(OCCCN(CCn3ccc4sccc4c3=O)Cc3cccnc3)ccc21` [Example 568, 1-ethyl-3,3,5-trimethyl-7-(3-{[2-(4-oxo-4H-thieno[3,2-c]pyridin-5-yl)ethyl]pyridin-3-ylmethylamino}-propoxy)-1,5-dihydrobenzo[b][1,4]diazepine-2,4-dione]: the IC50 under setting [1] was found to be 50 nM. Consider `CCN1C(=O)C(C)(C)C(=O)N(C)c2cc(OCCCN(CCc3cccnc3)C(=O)c3ccccc3)ccc21` [Example 633, N-[3-(1-ethyl-3,3,5-trimethyl-2,4-dioxo-2,3,4,5-tetrahydro-1H-benzo[b][1,4]diazepin-7-yloxy)propyl]-N-(2-pyridin-3-ylethyl)benzamide hydrochloride], for which the half-inhibitory concentration (IC50) under setting [1] worked out at 8400 nM.

Take `CCN1C(=O)C(C)(C)C(=O)N(C)c2cc(OCCCN(CCn3ccc4ccsc4c3=O)Cc3ccncc3)ccc21` [Example 68, 1-ethyl-3,3,5-trimethyl-7-(3-{[2-(7-oxo-7H-thieno[2,3-c]pyridin-6-yl)ethyl]pyridin-4-ylmethylamino}propoxy)-1,5-dihydrobenzo[b][1,4]diazepine-2,4-dione]: the concentration for half-maximal inhibition (IC50) under setting [1] turned out to be 5100 nM. Still for that read-out and setting: the figure for `CCN1C(=O)C(C)(C)C(=O)N(C)c2cc(OCCCN(CCn3ccc4ccccc4c3=O)Cc3ccco3)ccc21` [Example 132] is 270 nM. Consider `CCN1C(=O)C(C)(C)C(=O)N(C)c2cc(OCCCN(CCn3ccc4ccoc4c3=O)Cc3ccccc3C)ccc21` [Example 398], for which, under setting [1], the IC50 came out at 490 nM. Turning to `CCN1C(=O)C(C)(C)C(=O)N(C)c2cc(OCCCN(CCn3ccc4ccoc4c3=O)Cc3cccs3)ccc21` [Example 417], the IC50 under setting [1] is 980 nM. On the same count and under the same terms, with `CCN1C(=O)C(C)(C)C(=O)N(C)c2cc(OCCCN(CCn3ccc4ccoc4c3=O)Cc3ccncc3)ccc21` [Example 31, 1-ethyl-3,3,5-trimethyl-7-(3-{[2-(7-oxo-7H-furo[2,3-c]pyridin-6-yl)ethyl]pyridin-4-ylmethylamino}propoxy)-1,5-dihydrobenzo[b][1,4]diazepine-2,4-dione dihydrochloride] the figure was 2900 nM. On to `CCN1C(=O)C(C)(C)C(=O)N(C)c2cc(OCCCN(CCn3ccc4oc(C)cc4c3=O)Cc3ccncc3)ccc21` [Example 464, 1-ethyl-3,3,5-trimethyl-7-(3-{[2-(2-methyl-4-oxo-4H-furo[3,2-c]pyridin-5-yl)ethyl]pyridin-4-ylmethylamino}propoxy)-1,5-dihydrobenzo[b][1,4]diazepine-2,4-dione dihydrochloride], for which the IC50 under setting [1] amounted to 3200 nM. Turning to `CCCc1ncccc1CN(CCCOc1ccc2c(c1)N(C)C(=O)C(C)(C)C(=O)N2CC)CCn1ccc2oc(C)cc2c1=O` [Example 611, 1-ethyl-3,3,5-trimethyl-7-{3-[[2-(2-methyl-4-oxo-4H-furo[3,2-c]pyridin-5-yl)ethyl]-(2-propylpyridin-3-ylmethyl)amino]propoxy}-1,5-dihydrobenzo[b][1,4]diazepine-2,4-dione dihydrochloride], the 50% inhibitory concentration (IC50) under setting [1] stood at 370 nM. `CCN1C(=O)C(C)(C)C(=O)N(C)c2cc(OCCCN(CCn3ccc4ccccc4c3=O)Cc3ccsc3)ccc21` [Example 125]: inhibition was half-maximal at 91 nM (IC50). Take `CCN1C(=O)C(C)(C)C(=O)N(C)c2cc(OCCCN(CCn3ccc4occc4c3=O)Cc3cnccc3C)ccc21` [Example 590, 1-ethyl-3,3,5-trimethyl-7-(3-{(4-methylpyridin-3-ylmethyl)-[2-(4-oxo-4H-furo[3,2-c]pyridin-5-yl)ethyl]-amino}propoxy)-1,5-dihydrobenzo[b][1,4]diazepine-2,4-dione]: the IC50 under setting [1] stood at 2400 nM. On to `CCCN1C(=O)C(C)(C)C(=O)N(C)c2cc(OCCCN(CCc3cccnc3)Cc3ccncc3)ccc21` [Example 10, 3,3,5-trimethyl-1-propyl-7-{3-[(2-pyridin-3-ylethyl)pyridin-4-ylmethylamino]propoxy}-1,5-dihydrobenzo[b][1,4]diazepine-2,4-dione trihydrochloride], for which, under setting [1], the IC50 was determined as 3600 nM.

As to `CCN1C(=O)C(C)(C)C(=O)N(C)c2cc(OCCCN(CCn3ccc4occc4c3=O)Cc3cccnc3C)ccc21` [Example 575, 1-ethyl-3,3,5-trimethyl-7-(3-{(2-methylpyridin-3-ylmethyl)-[2-(4-oxo-4H-furo[3,2-c]pyridin-5-yl)ethyl]-amino}propoxy)-1,5-dihydrobenzo[b][1,4]diazepine-2,4-dione], the concentration for half-maximal inhibition (IC50) under setting [1] is 500 nM. Regarding `CCN1C(=O)C(C)(C)C(=O)N(C)c2cc(OCCCN(CCn3c(=O)ccc4ccccc43)Cc3ccncc3)ccc21` [Example 63, 1-ethyl-3,3,5-trimethyl-7-(3-{[2-(2-oxo-2H-quinolin-1-yl)ethyl]pyridin-4-ylmethylamino}propoxy)-1,5-dihydrobenzo[b][1,4]diazepine-2,4-dione], the IC50 under setting [1] is 920 nM. On the same count and under the same terms, with `CCN1C(=O)C(C)(C)C(=O)N(C)c2cc(OCCCN(CCn3ccc4ccccc4c3=O)Cc3ccncc3)ccc21` [Example 23, 1-ethyl-3,3,5-trimethyl-7-(3-{[2-(1-oxo-1H-isoquinolin-2-yl)ethyl]pyridin-4-ylmethylamino}propoxy)-1,5-dihydrobenzo[b][1,4]diazepine-2,4-dione dihydrochloride] the figure was 250 nM.
